Test results from US8969362B2 (priority 2004, dated 2015).

How the values were obtained:
rat spleen cells = test: cells; assay type: cell-based; details: 24 h, read-out: Minimum effective concentration (interferon inducing activity)
[1] = Metabolic stability test on rat liver S9; assay type: in vitro ADME; details: rat liver S9 with NADPH, 1 μM test compound, 37° C.; residual rate after reaction
Procedure: The reaction using liver S9 of rat was conducted on a 96-well plate by using a screening robot by Tecan Company. S9 solution was prepared by adding 250 mM Kpi (ph 7.4) 20 ml and deionized water 20 ml to 10 ml of liver S9 of rat, a Cofactor solution was prepared by dissolving NADPH 220 mg in deionized water 40.5 ml (Final 6 mM), and IS (Internal Standard) solution was prepared by adding IS solution (1 mM DMSO solution) 300 μl to acetonitrile 30 ml (100 times dilution). The test compound (1 μM DMSO solution) was dissolved in an incubator at 37° C. After each 35 μL was poured in a 96-well plate (24 samples/plate), plates (sample plates, 96-well plates for dilution, each Deep well plates for the reaction and the recovery, plates for extraction of a solid phase) and reagents (S9 solution, Cofactor solution, IS (Internal Standard) solution, Stop solution, acetonitrile for elution) were set to the specified position in the booth of the robot and the reaction started (the concentration of the test compounds was 1 μM). Incubation was conducted under shaking at 37° C., the solid phase was extracted (at the same time, the internal standard for analysis was added). To the recovered samples 200 μL/well was added 50 μL of acetonitrile per each well, and to 2 plates of FALCON Deep well were poured 100 μL/well of the solution per well. By subjecting to the LC/MS analysis, the chromatography of the test compound and the internal standard were described and the peak area was calculated. And then, the stability (residual rate after reaction) was calculated.

[2] = Metabolic stability test using human plasma; assay type: in vitro ADME; details: 1 μM test compound, 37° C., 15 minutes, pre-metabolization concentration as 100%
Procedure: Plasma was prepared from fresh human blood and the test compound (containing 1% DMSO) of the final concentration of 1 μM was added thereto.
After a metabolic reaction by plasma esterase was conducted at 37° C. for 15 minutes, the test compound was extracted with ethyl acetate, and quantitatively analyzed by reverse phase HPLC. The metabolic stability of the test compound was shown by the residual amount (%) per the concentration of pre-metabolization as 100%.

SMILES: CCCCOc1nc(N)c2[nH]c(=O)n(CCCCNC(=O)Nc3cccc(C(=O)OC)c3)c2n1 [Example 10, 2-butoxy-8-oxo-9-[4-(3-methoxycarbonylphenylaminocarbonylamino)butyl]adenine]
- minimal effective concentration (rat spleen cells): 0.001 µM
- Residual rate [1]: 1%

SMILES: CCCCOc1nc(N)c2[nH]c(=O)n(CCOc3ccc(CCC(=O)OC)cc3)c2n1 [Example 7, 2-butoxy-8-oxo-9-{2-[4-(2-methoxycarbonylethyl)phenoxy]ethyl}adenine]
- Residual rate [1]: 0%

SMILES: CCCCOc1nc(N)c2[nH]c(=O)n(CCOc3cccc(C(=O)OC)c3)c2n1 [Example 1, 2-butoxy-8-oxo-9-[2-(3-methoxycarbonylphenoxy)ethyl]adenine]
- minimal effective concentration (rat spleen cells): 0.0003 µM
- Residual rate [1]: 0%

SMILES: CCCCOc1nc(N)c2[nH]c(=O)n(CCOc3ccc(C(=O)OC)cc3)c2n1 [Example 5, 2-butoxy-8-oxo-9-[2-(4-methoxycarbonylphenoxy)ethyl]adenine]
- Residual rate [1]: 0%

SMILES: CCCCOc1nc(N)c2[nH]c(=O)n(CCOc3ccccc3C(=O)OC)c2n1 [Example 3, 2-butoxy-8-oxo-9-[2-(2-methoxycarbonylphenoxy)ethyl]adenine]
- minimal effective concentration (rat spleen cells): 0.001 µM
- Residual rate [1]: 0%

SMILES: CCCCOc1nc(N)c2[nH]c(=O)n(CCOc3ccc(CC(=O)OC)cc3)c2n1 [Example 6, 2-butoxy-8-oxo-9-[2-(4-methoxycarbonylmethylphenoxy)ethyl]adenine]
- minimal effective concentration (rat spleen cells): 0.01 µM
- Residual rate [1]: 0%

SMILES: CCCCOc1nc(N)c2[nH]c(=O)n(CCCCNS(=O)(=O)c3cccc(CC(=O)OC)c3)c2n1 [Example 9, 2-butoxy-8-oxo-9-[4-(3-methoxycarbonylmethylbenzenesulfonamide)butyl]adenine]
- minimal effective concentration (rat spleen cells): 0.003 µM
- Residual rate [2]: <1.0%
- Residual rate [1]: 0%

SMILES: CCCCOc1nc(N)c2[nH]c(=O)n(CCOc3ccccc3CC(=O)OC)c2n1 [Example 4, 2-butoxy-8-oxo-9-[2-(2-methoxycarbonylmethylphenoxy)ethyl]adenine]
- minimal effective concentration (rat spleen cells): 0.001 µM
- Residual rate [1]: 0%

SMILES: CCCCOc1nc(N)c2[nH]c(=O)n(CCCCNS(=O)(=O)c3cccc(C(=O)OC)c3)c2n1 [Example 8, 2-butoxy-8-oxo-9-[4-(3-methoxycarbonylbenzenesulfonamide)butyl]adenine]
- minimal effective concentration (rat spleen cells): 0.003 µM
- Residual rate [1]: 0%

SMILES: CCCCOc1nc(N)c2[nH]c(=O)n(CCOc3cccc(CC(=O)OC)c3)c2n1 [Example 2, 2-butoxy-8-oxo-9-[2-(3-methoxycarbonylmethylphenoxy)ethyl]adenine]
- minimal effective concentration (rat spleen cells): 0.003 µM
- Residual rate [2]: 1.4%
- Residual rate [1]: 1%
